Assay results published in the supplement of paper PMC13380429.

What was measured:
Settings in all cases: 72 h
Caco-2 [1] = experiment: cell viability relative to DMSO; higher = less toxic
Calu-3 [2] = experiment: as above
HepG2 [3] = experiment: as above
U2OS [4] = experiment: as above
Vero E6 [5] = experiment: as above
Caco-2 [6] = experiment: relative viability EC50 (midpoint between 100% and the lowest measured viability); higher = less toxic
Calu-3 [7] = experiment: as above
HepG2 [8] = experiment: as above
U2OS [9] = experiment: as above
Vero E6 [10] = experiment: as above
Caco-2 [11] = experiment: drug sensitivity score (DSS) for viability; higher = more toxic; extreme values may be limits of the assay
Calu-3 [12] = experiment: as above
HepG2 [13] = experiment: as above
U2OS [14] = experiment: as above
Vero E6 [15] = experiment: as above

Structure (SMILES) | cell viability (Caco-2 [1]; 1 nM) | cell viability (Caco-2 [1]; 10 nM) | cell viability (Caco-2 [1]; 100 nM) | cell viability (Caco-2 [1]; 1000 nM) | cell viability (Caco-2 [1]; 10000 nM) | cell viability (Calu-3 [2]; 1 nM) | cell viability (Calu-3 [2]; 10 nM) | cell viability (Calu-3 [2]; 100 nM) | cell viability (Calu-3 [2]; 1000 nM) | cell viability (Calu-3 [2]; 10000 nM) | cell viability (HepG2 [3]; 1 nM) | cell viability (HepG2 [3]; 10 nM) | cell viability (HepG2 [3]; 100 nM) | cell viability (HepG2 [3]; 1000 nM) | cell viability (HepG2 [3]; 10000 nM) | cell viability (U2OS [4]; 1 nM) | cell viability (U2OS [4]; 10 nM) | cell viability (U2OS [4]; 100 nM) | cell viability (U2OS [4]; 1000 nM) | cell viability (U2OS [4]; 10000 nM) | cell viability (Vero E6 [5]; 1 nM) | cell viability (Vero E6 [5]; 10 nM) | cell viability (Vero E6 [5]; 100 nM) | cell viability (Vero E6 [5]; 1000 nM) | cell viability (Vero E6 [5]; 10000 nM) | relative viability EC50 (Caco-2 [6]) | relative viability EC50 (Calu-3 [7]) | relative viability EC50 (HepG2 [8]) | relative viability EC50 (U2OS [9]) | relative viability EC50 (Vero E6 [10]) | drug sensitivity score (Caco-2 [11]) | drug sensitivity score (Calu-3 [12]) | drug sensitivity score (HepG2 [13]) | drug sensitivity score (U2OS [14]) | drug sensitivity score (Vero E6 [15])
CCc1cc(C(N)=S)ccn1 [ethionamide] | 95.7% | 92.7% | 96.5% | 92.6% | 102% | 90.8% | 92.2% | 98.7% | 93% | 95.7% | 100% | 90.6% | 97.9% | 102% | 102% | 97.8% | 94% | 97.1% | 94.7% | 96.3% | 96.7% | 101% | 101% | 91.5% | 99.7% | > 10 µM | > 10 µM | > 10 µM | > 10 µM | > 10 µM | 0 | 0 | 0 | 0 | 0
O=C(Nc1c(Cl)cncc1Cl)c1ccc(OC(F)F)c(OCC2CC2)c1 [roflumilast] | 104% | 101% | 97.3% | 100% | 101% | 89.1% | 107% | 94.2% | 93.8% | 98.6% | 106% | 96.9% | 101% | 101% | 128% | 96.4% | 98.5% | 94.2% | 94.8% | 99.5% | 101% | 91.2% | 99.3% | 102% | 103% | > 10 µM | > 10 µM | > 10 µM | > 10 µM | > 10 µM | 0 | 0 | 0 | 0 | 0
Oc1ccc(-c2nc(-c3ccc(F)cc3)c(-c3ccncc3)[nH]2)cc1 | 88.1% | 104% | 100% | 95% | 91.1% | 87.3% | 106% | 104% | 118% | 91.2% | 101% | 103% | 102% | 94% | 83.5% | 96.6% | 101% | 94.8% | 98.1% | 89.8% | 97.7% | 100% | 91.1% | 93.4% | 111% | > 10 µM | > 10 µM | > 10 µM | > 10 µM | > 10 µM | 0 | 0 | 0.9 | 0 | 0
Cc1ncc(Cl)cc1NCc1ccc(C(=O)N[C@@H](CC2CCCC2)C(=O)NC2CC2)s1 | 99.9% | 104% | 97.5% | 96.3% | 96.6% | 94.7% | 106% | 99.8% | 89.7% | 109% | 100% | 102% | 97.5% | 89.7% | 88.2% | 99.5% | 104% | 94.5% | 95% | 90.6% | 107% | 94.7% | 104% | 98% | 91.6% | > 10 µM | > 10 µM | > 10 µM | > 10 µM | > 10 µM | 0 | 0 | 0.4 | 0 | 0
O=C(O)[C@H](Cc1ccc(Nc2nccc3ccncc23)cc1)NC1=C(Br)C(=O)C12CCCCC2 [CT-7758] | 97.5% | 100% | 88.9% | 105% | 102% | 108% | 105% | 95.3% | 89.6% | 104% | 99.3% | 95.4% | 105% | 101% | 101% | 101% | 104% | 96.6% | 98.6% | 96.5% | 97.6% | 104% | 93.3% | 98.2% | 93.4% | > 10 µM | > 10 µM | > 10 µM | > 10 µM | > 10 µM | 0 | 0 | 0 | 0 | 0
NCCCCCNCC12CC3CC(CC(C3)C1)C2 [IEM1754] | 104% | 97.4% | 101% | 104% | 102% | 108% | 106% | 91% | 97.8% | 82.1% | 106% | 89.3% | 98.1% | 97.8% | 97.9% | 98.6% | 106% | 100% | 100% | 99% | 98.6% | 98.6% | 94.7% | 97.3% | 102% | > 10 µM | > 10 µM | > 10 µM | > 10 µM | > 10 µM | 0 | 0.7 | 0 | 0 | 0
Cc1cc(OCCN2CCOCC2)nn1-c1ccc2ccccc2c1 [API-001] | 93.2% | 91.8% | 96.4% | 94.1% | 92% | 98.5% | 83.4% | 107% | 115% | 96.7% | 102% | 111% | 89.9% | 102% | 103% | 98.2% | 98.5% | 102% | 101% | 102% | 96.3% | 96% | 91.9% | 94.8% | 103% | > 10 µM | > 10 µM | > 10 µM | > 10 µM | > 10 µM | 0 | 0 | 0 | 0 | 0
C[C@@H](O[C@H]1OCCN(Cc2n[nH]c(=O)[nH]2)[C@H]1c1ccc(F)cc1)c1cc(C(F)(F)F)cc(C(F)(F)F)c1 [aprepitant] | 100% | 107% | 100% | 105% | 89.2% | 90.9% | 105% | 103% | 97.7% | 97.1% | 102% | 103% | 106% | 109% | 95.3% | 99.5% | 103% | 95.3% | 102% | 88.4% | 97.4% | 104% | 98.8% | 103% | 103% | > 10 µM | > 10 µM | > 10 µM | > 10 µM | > 10 µM | 0 | 0 | 0 | 0 | 0
CCN1CCN(Cc2ccc(-c3cc4c(N[C@H](C)c5ccccc5)ncnc4[nH]3)cc2)CC1 [AEE788] | 89.5% | 91.9% | 94.8% | 81.9% | 78% | 100% | 103% | 84.9% | 38.1% | 3.7% | 109% | 95.4% | 98.1% | 110% | 82.5% | 98.7% | 95.7% | 97.8% | 86.7% | 44.7% | 97.6% | 94.7% | 82.2% | 54.4% | 27.1% | > 10 µM | 0.548 µM | > 10 µM | 1.58 µM | 0.435 µM | 2.4 | 13.7 | 0.2 | 5.1 | 10.9
CC(=O)OCC1=C(C(=O)O)N2C(=O)[C@@H](N)[C@H]2SC1 [7-aminocephalosporanic-acid] | 101% | 106% | 102% | 98.7% | 100% | 116% | 102% | 97.5% | 99.5% | 115% | 105% | 117% | 109% | 115% | 99.7% | 101% | 99% | 100% | 97.8% | 101% | 97.5% | 100% | 96.4% | 95.5% | 98.8% | > 10 µM | > 10 µM | > 10 µM | > 10 µM | > 10 µM | 0 | 0 | 0 | 0 | 0
Oc1cc2c(cc1O)[C@@H]1c3ccc(O)c(O)c3OC[C@]1(O)C2 [hematoxylin] | 98.4% | 89.9% | 93% | 108% | 90% | 97.1% | 103% | 92.4% | 110% | 96.1% | 104% | 100% | 96.4% | 104% | 105% | 98.5% | 93.5% | 99.2% | 103% | 91.1% | 95.2% | 99.3% | 92.7% | 95.5% | 102% | > 10 µM | > 10 µM | > 10 µM | > 10 µM | > 10 µM | 0 | 0 | 0 | 0 | 0
COc1ccc(N(C)c2nc(C)nc3ccccc23)cc1 [verubulin] | 103% | 76.2% | 40.5% | 38.3% | 34.6% | 94.9% | 77.2% | 46.6% | 42.3% | 40.3% | 108% | 52.4% | 34.3% | 36.3% | 41.4% | 102% | 72.6% | 17.3% | 18% | 18.3% | 93% | 32.6% | 21.4% | 23.9% | 27.9% | 0.0156 µM | 0.0151 µM | 0.0069 µM | 0.0133 µM | 0.0037 µM | 22.4 | 20.2 | 26.2 | 29.6 | 33.5
CC(=O)O[C@]1(C(C)=O)CC[C@H]2[C@@H]3C[C@H](C)C4=CC(=O)C=C[C@]4(C)[C@@]3(F)[C@@H](O)C[C@@]21C [fluorometholone-acetate] | 99.9% | 109% | 99.1% | 104% | 86.6% | 103% | 100% | 97.8% | 106% | 98.9% | 102% | 95.6% | 101% | 92.7% | 89.7% | 105% | 103% | 99.3% | 98.5% | 96.2% | 93.5% | 98.3% | 93.9% | 95.7% | 90.4% | > 10 µM | > 10 µM | > 10 µM | > 10 µM | > 10 µM | 0.1 | 0 | 0 | 0 | 0
CC(N)Cc1c[nH]c2ccc(OCc3cccs3)cc12 (stereo not given) [BW-723C86] | 99.8% | 97.7% | 93% | 94.8% | 98.8% | 109% | 95.6% | 98.6% | 104% | 76.5% | 102% | 107% | 96.8% | 95.5% | 81% | 102% | 98.2% | 99% | 98.2% | 96.9% | 96% | 94.9% | 95.1% | 96.1% | 89.1% | > 10 µM | > 10 µM | > 10 µM | > 10 µM | > 10 µM | 0 | 0.7 | 1 | 0 | 0
